Experimental data reported in US20230313181A1, “HISTIDINE-LYSINE POLYMERS AND METHODS FOR DELIVERING MRNA USING THE SAME” (UNIVERSITY OF MARYLAND, BALTIMORE, priority 2019, published 2023).
Entries after “also recorded” stand apart in the source; their conditions may differ. Where no end group is shown, it is not given here.

How the values were obtained:
MDA-MB-231 cells = assay: In vitro mRNA transfection with HK polyplexes (luciferase mRNA, luciferase activity); assay type: cell-based; settings: for effectiveness as carrier of mRNA (in words): luciferase mRNA, HK polyplex; for RLU/μg-Protein (luciferase activity): mRNA 1 μg, 24 h; for mRNA transfection relative to H3K(+H)4b (in words): 4:1 ratio (HK:mRNA)
Description: FIG. 1. Comparison of H3K(+H)4b and H3K4b peptides as carriers of mRNA. To form the HK polyplexes, the mRNA (1 μg) was mixed with 3 different ratios of the HK ([…]) polymer for 30 minutes. The HK polyplexes were then added to the cells for 24 h before the luciferase activity was measured. ****, H3K(+H)4b vs H3K4b, P<0.0001.
In vitro mRNA Transfection. Several HK polymers were examined for their ability to carry a luciferase-expressing mRNA (CleanCap Firefly Luciferase mRNA, Trilink Biotechnologies, Inc, San Diego, CA) into MDA-MB-231 cells (America Type Tissue Culture, Manassas, VA). In brief, 3×10^4 cells were plated into a 24-well plate containing 500 μl of DMEM and 10% fetal bovine serum (ThermoFisher Scientific, Waltham, MA). After 24 h, when the cells were 60 to 80% confluent, the media in each well was changed to Opti-MEM (ThermoFisher Scientific). To prepare HK polyplexes, mRNA (1 μg) in 50 μl of Opti-MEM was briefly mixed well with one of the HK polymers (4 to 12 μg) and maintained at room temperature for 30 min. This polyplex was then added dropwise to the cells. After four h, the Opti-MEM media was removed and replaced with 0.5 ml of DMEM/10% serum (0.5 ml). Twenty-four hours later, the cells were lysed, and the luciferase activity (Promega Corporation, Madison, WI) was measured.
To obtain the data in Table 4, luciferase-expressing mRNA (1 μg) in 50 μl of Opti-MEM was briefly mixed with one of the HK polymers (4, 8, or 12 μg) and maintained at room temperature for 30 min. The resulting polyplexes were added dropwise to the MDA-NM-231 cells and after four h, the Opti-MEM media was removed and replaced with DMEM/10% serum. Twenty-four hours later, the cells were lysed, and the luciferase activity was measured

human cells = settings: cited from earlier work
[1] = prior study [43]; cited from earlier work
mRNA = assay: Heparin displacement assays (gel electrophoresis and Sybr Gold dye intercalation); assay type: physicochemical; settings: HK:mRNA 4:1 wt/wt
Description: FIG. 4. Heparin Displacement Assays. After HK polyplexes were formed (wt:wt; HK:mRNA; 4 μg:1 μg), different concentrations of heparin […] were incubated with these for 30 min. A. Gel Retardation. The HK polyplexes were loaded on the agarose gel (1%), and electrophoresis was carried out and stained with Sybr Gold. B. Fluorescent dye intercalation. After the HK polyplexes were formed and incubated with several concentrations of heparin, the Sybr Gold nucleic acid dye was incubated with the HK polyplexes for 5 mins. Fluorescence was then measured by a microplate fluorimeter (λex=497 nm, λem=520 nm) (SynergyMx, BioTek). *, P<0.05; ***, P<0.001; H3K4b or H2K vs. H3K(+H)4b.
Heparin Displacement Assays. Heparin displacement assays of HK polyplexes were done with the dye intercalation assay and with gel electrophoresis. A fluorescent assay assessed polyplexes of HK polymer and mRNA (4:1 wt/wt ratio; polymer:mRNA) formed in RNAse/DNAase free water (Corning, Manassas, VA). HK polyplexes were prepared as described previously, followed by the addition of diluted Syber Gold. For detection, working dilutions of the polyplexes (1/5 of volume), water (3/5) and Sybr Gold dye (1/5, 0.2×) were incubated for 5 minutes, and fluorescence was measured by a fluorimeter (Ex=497 nm, Em=520 nm) (SynergyMx, BioTek, Winooski, VT). The control sample was prepared with the same amount of mRNA, water, and Sybr Gold dye. For the heparin displacement, instead of water, heparin salt (Sigma-Aldrich, St. Louis, MO) solutions at different concentrations (0.5, 1, 1.5, 2, 3 μg/μl) were used, and the HK polyplexes were incubated at 37° C. for 30 min before addition of Sybr Gold.
Displacement of mRNA from HK polyplexes with heparin was also done with gel electrophoresis. After HK polyplexes were formed, different concentrations of heparin (0.5, 1.0, 1.5, 2.0, 3.0 μg/μl; volume 20 μl) were incubated with these at 37° C. for 30 min. The polyplexes were then loaded on the agarose gel (1%; 10× BlueJuice Gel loading buffer), and electrophoresis was carried out and stained with SG as described above. […]

[2] = prior studies [27]; cited from earlier work
[3] = prior studies [34, 35, 45]; cited from earlier work
[4] = ratio mRNA:polymer 1:12 (wt:wt)

| Substance | effectiveness as carrier of mRNA (in words) (MDA-MB-231 cells) | RLU/μg-Protein (luciferase activity) (MDA-MB-231 cells; ratio mRNA:polymer 1:4 (wt:wt)) [RLU/μg-Protein] | RLU/μg-Protein (luciferase activity) (MDA-MB-231 cells; ratio mRNA:polymer 1:8 (wt:wt)) [RLU/μg-Protein] | RLU/μg-Protein (luciferase activity) (MDA-MB-231 cells; [4]) [RLU/μg-Protein] | mRNA transfection relative to H3K(+H)4b (in words) (MDA-MB-231 cells) | cytotoxicity to human cells (in words) (human cells) | antimicrobial activity (in words) [1] | binding/release of mRNA and polyplex stability on exposure to heparin (in words) (mRNA) | carrier of DNA plasmids (in words) [2] | carrier of siRNA (in words) [3] | fold less effective in transfecting mRNA compared to H3K(+H)4b (MDA-MB-231 cells; 4:1 ratio (HK:mRNA; wt:wt)) |
| --- | --- | --- | --- | --- | --- | --- | --- | --- | --- | --- | --- |
| H3K(3+H)4b: four-branched HK polymer, each branch R = KHHHKHHHHKHHHKHHHK- (SEQ ID NO: 13) (also: one of four branches on a branched lysine core) | poor carriers of mRNA | 61.7 ± 5.7 | 68.7 ± 3.1 | 59.0 ± 7.5 |  |  |  |  |  |  |  |
| H-H3K(+H)4b: four-branched HK polymer, each branch R = HKHHHKHHHKHHHHKHHHK- (SEQ ID NO: 9) (also: one of four branches on a branched lysine core) | effective carriers of mRNA; also recorded: markedly more effective as a carrier of mRNA | 1107.5 ± 140.4 | 874.6 ± 65.2 | 676.4 ± 25.7 | did not improve mRNA transfection more than H3K(+H)4b |  |  |  |  |  |  |
| H4K4b: four-branched HK polymer, each branch R = KHHHHKHHHHKHHHHKHHHHK- (SEQ ID NO: 11) (also: one of four branches on a branched lysine core) | effective carriers of mRNA | 896.4 ± 112.6 | 821.8 ± 115.6 | 522.4 ± 69.2 | did not enhance mRNA transfection |  |  |  |  |  |  |
| H3k4b (KHHHKHHHKHHHKHHHK; also: one of four branches on a branched lysine core) |  |  |  |  |  | no observed cytotoxicity to human cells | greater antimicrobial activity |  |  |  |  |
| H2K4b: four-branched HK polymer on three-lysine core, each branch R = KHKHHKHHKHHKHHKHHKHK- (SEQ ID NO: 5) (also: one of four branches on a three-lysine core) |  | 546.7 ± 70.1 | 132.3 ± 58.5 | 194.7 ± 18.4 |  |  |  | too stable | good carrier of large molecular weight DNA plasmids | poor carrier of relatively low molecular weight siRNA |  |
| H3K(1,3+H)4b: four-branched HK polymer, each branch R = KHHHKHHHHKHHHKHHHHK- (SEQ ID NO: 14) (also: one of four branches on a branched lysine core) |  | 518.3 ± 134.7 | 427.7 ± 18.1 | 378 ± 5.2 |  |  |  |  |  |  | about 2.5 fold |
| H3K(1+H)4b: four-branched HK polymer, each branch R = KHHHKHHHKHHHKHHHHK- (SEQ ID NO: 12) (also: one of four branches on a branched lysine core) | poor carriers of mRNA | 24.3 ± 4.5 | 15.0 ± 3.6 | 7.3 ± 2.5 |  |  |  |  |  |  |  |
